The values below come from article PMC3071440 (Journal of medicinal chemistry, 2010).

The nature of data set [1]: In vivo PK in rats following oral administration. The note with it: rat, oral 10 mg/kg, harvested at or near Tmax.
For data set [2] the following is noted: rat, oral 10 mg/kg; cited from earlier work.

As for `O=C(O)c1cc(-c2cccc(COc3ccc4c(c3)CN(C3CCCC3)C4=O)c2)ccc1Cl` [Compound 8a, 4-Chloro-3′-((2-cyclopentyl-1-oxoisoindolin-5-yloxy)-methyl)biphenyl-3-carboxylic acid], the Brain level in data set [1] stood at 3.8 ± 1.2 µM.

With `Cc1c(OCc2cccc(-c3ccc(C(=O)O)cc3)c2)cc2c(c1C)C(=O)C(C1CCCC1)C2` (centres unmarked) [Compound 1, 3′-((2-cyclopentyl-6,7-dimethyl-1-oxo-2,3-dihydro-1H-inden-5-yloxy)methyl)biphenyl-4-carboxylic acid], in data set [2], the “brain levels following oral dosing” value is recorded as “below the limit of quantitation”.
